Reference: patent US20150307938A1, “METHOD TO IDENTIFY A NOVEL CLASS OF IMMUNOLOGIC ADJUVANTS” (Lancell, L.L.C., priority 2011, published 2015)

Tested on: skin
Assay: Affymetrix microarray of skin, DBP-4 hr and analogs vs. untreated; gene selection by log-2 fold change, Wilcoxon, Kendall tau (Tables 8, 9)
Assay type: in vivo, mouse
Settings: for Wilcoxon: DBP-4 hr vs. untreated; for Kendall: Kendall tau, expression vs. outcome
[1] = gene #535 Tmem93 NM_001168470_at
[2] = gene #536 Nfkb2 NM_001177369_at
[3] = gene #537 Nfkb2 NM_001177370_at
[4] = gene #538 Zfp518b NM_001177902_at
[5] = gene #541 Meis1 NM_001193271_at
[6] = gene #542 Bcar1 NM_001198839_at
[7] = gene #543 Dcaf11 NM_001199009_at
[8] = gene #544 Rabgef1 NM_001199059_at
[9] = gene #545 4931408A02Rik NM_001199210_at

CCCCOC(=O)c1ccccc1C(=O)OCCCC [DBP, dibutylphthalate]
Log2 Expression Level (gene #56 of Table 8): 10.17 | Log2 Expression Level (gene #57 of Table 8): 8.92 | Log2 Expression Level (gene #58 of Table 8): 9.48 | Log2 Expression Level (gene #59 of Table 8): 8.72 | Log2 Expression Level (gene #60 of Table 8): 7.73 | Log2 Expression Level (gene #61 of Table 8): 12.15 | Log2 Expression Level (gene #62 of Table 8): 8.52 | Log2 Expression Level (gene #63 of Table 8): 11.36 | Log2 Expression Level (gene #64 of Table 8): 11.47 | Log2 Expression Level (gene #65 of Table 8): 7.88 | Log2 Expression Level (gene #66 of Table 8): 8.85 | Log2 Expression Level (gene #67 of Table 8): 5.48 | Log2 Expression Level (gene #68 of Table 8): 10.24 | Log2 Expression Level (gene #69 of Table 8): 6.54 | Log2 Expression Level (gene #70 of Table 8): 5.48 | Log2 Expression Level (gene #71 of Table 8): 8.51 | Log2 Expression Level (gene #72 of Table 8): 9.12 | Log2 Expression Level (gene #73 of Table 8): 7.67 | Log2 Expression Level (gene #74 of Table 8): 7.70 | Log2 Expression Level (gene #75 of Table 8): 9.61 | Log2 Expression Level (gene #76 of Table 8): 5.46 | Log2 Expression Level (gene #77 of Table 8): 9.71 | Log2 Expression Level (gene #78 of Table 8): 10.76 | Log2 Expression Level (gene #79 of Table 8): 8.09 | Log2 Expression Level (gene #80 of Table 8): 13.23 | Log2 Expression Level (gene #81 of Table 8): 6.69 | Log2 Expression Level (gene #82 of Table 8): 6.28 | Log2 Expression Level (gene #83 of Table 8): 7.59 | Log2 Expression Level (gene #84 of Table 8): 8.32 | Log2 Expression Level (gene #85 of Table 8): 7.84 | Log2 Expression Level (gene #86 of Table 8): 7.16 | Log2 Expression Level (gene #87 of Table 8): 9.56 | Log2 Expression Level (gene #88 of Table 8): 8.67 | Log2 Expression Level (gene #89 of Table 8): 6.04 | Log2 Expression Level (gene #90 of Table 8): 10.84 | Log2 Expression Level (gene #91 of Table 8): 8.25 | Log2 Expression Level (gene #92 of Table 8): 7.56 | Log2 Expression Level (gene #93 of Table 8): 9.98 | Log2 Expression Level (gene #94 of Table 8): 8.85 | Log2 Expression Level (gene #95 of Table 8): 7.22 | Log2 Expression Level (gene #96 of Table 8): 8.79 | Log2 Expression Level (gene #97 of Table 8): 6.04 | Log2 Expression Level (gene #98 of Table 8): 5.99 | Log2 Expression Level (gene #99 of Table 8): 10.05 | Log2 Expression Level (gene #100 of Table 8): 8.07 | Wilcoxon [1]: No | Kendall [1]: Yes | Wilcoxon [2]: No | Kendall [2]: Yes | Wilcoxon [3]: No | Kendall [3]: Yes | Wilcoxon [4]: No | Kendall [4]: Yes | Wilcoxon (gene #539 Ccm2 NM_001190343_at): No | Kendall (gene #539 Ccm2 NM_001190343_at): Yes | Wilcoxon (gene #540 Ccm2 NM_001190344_at): No | Kendall (gene #540 Ccm2 NM_001190344_at): Yes | Wilcoxon [5]: No | Kendall [5]: Yes | Wilcoxon [6]: No | Kendall [6]: Yes | Wilcoxon [7]: No | Kendall [7]: Yes | Wilcoxon [8]: No | Kendall [8]: Yes | Wilcoxon [9]: No | Kendall [9]: Yes | Wilcoxon (gene #546 Cav1 NM_007616_at): No | Kendall (gene #546 Cav1 NM_007616_at): Yes | Wilcoxon (gene #547 Cdkn2c NM_007671_at): No | Kendall (gene #547 Cdkn2c NM_007671_at): Yes | Wilcoxon (gene #548 Chd1 NM_007690_at): No | Kendall (gene #548 Chd1 NM_007690_at): Yes | Wilcoxon (gene #549 Cox8a NM_007750_at): No | Kendall (gene #549 Cox8a NM_007750_at): Yes | Wilcoxon (gene #550 Epc1 NM_007935_at): No | Kendall (gene #550 Epc1 NM_007935_at): Yes | Wilcoxon (gene #551 Mpzl2 NM_007962_at): No | Kendall (gene #551 Mpzl2 NM_007962_at): Yes | Wilcoxon (gene #552 Fnta NM_008033_at): No | Kendall (gene #552 Fnta NM_008033_at): Yes | Wilcoxon (gene #553 Gcdh NM_008097_at): No | Kendall (gene #553 Gcdh NM_008097_at): Yes | Wilcoxon (gene #554 Gcnt2 NM_008105_at): No | Kendall (gene #554 Gcnt2 NM_008105_at): Yes | Wilcoxon (gene #555 Nr3c1 NM_008173_at): No | Kendall (gene #555 Nr3c1 NM_008173_at): Yes | Wilcoxon (gene #556 Hhex NM_008245_at): No | Kendall (gene #556 Hhex NM_008245_at): Yes
